Experimental data taken from US20070142348A1, “Microbicidal, prophylactic and therapeutic effect of ctc-96 on papilloma viruses” (REDOX PHARMACEUTICAL CORPORATION, AUDUBON […] AND […], priority 2003, published 2007).

Tests used:
HPV-11 [1] = assay: Prophylactic (topical microbicide) activity: human grafts exposed to CTC-96 for 1 hour, washed, then exposed to HPV-11; xenograft in the SCID mouse; format: in vivo
Experimental: Given the virucidal activity of CTC-96™, a series of experiments was performed to evaluate the prophylactic activity of the compound under conditions resembling that of the use of a topical microbicide. When using a topical microbicide the target organ is first exposed to the microbicide before exposure to the virus. Various concentrations of CTC-96™ were evaluated in a model of HPV-11-infected human xenograft in the SCID mouse. The human grafts were exposed to CTC-96™ for 1 hour prior to exposure to HPV-11 and engraftment. Because CTC-96™ is virucidal, it was washed off the foreskin fragments before exposure to the virus. The HPV-11-infected grafts were allowed to grow for 12 weeks. After 12 weeks, the animals were sacrificed and the grafts recovered, measured and processed. Graft size, expressed as the composite geometric mean diameter of the two grafts borne by the animal, was the primary endpoint. Histology of the grafts was examined for the presence of HPV. Grafts were also processed for detection of HPV-11 mRNAs transcripts by reverse transcriptase-polymerase chain reaction (RT-PCR).
Grafts that are not infected by HPV proliferate poorly and tend to be eliminated by the mouse's host defenses as a foreign body. The residual fibrous tissue is a scar. In order to analyze the results properly, grafts that were truly negative (graft showing a healthy human epithelium) as well as those showing a foreign body reaction or fibrous tissue were counted as negative for HPV.
Table 7 summarizes the immunocytochemistry results for the presence of HPV capsid antigen in the grafts. As the concentration of CTC-96™ increases, the number of grafts displaying either fibrous tissue or a foreign body reaction also increases. […] Again, a strong microbicidal effect of CTC-96™ is observed.

HPV-11 [2] = assay: Effect of CTC-96 on the infectivity of HPV-11 (virus incubated with CTC-96 prior to infection of foreskin fragments), human xenograft SCID mouse model; format: in vivo, SCID mice; conditions: for Immunocytochemistry: grafts Negative for HPV (number): foreign body/fibrous counted as negative; for Histology: grafts Negative for HPV (number): foreign body reaction/fibrous tissue counted as negative; for Composite Geometric Mean Diameters (cGMD) of the Grafts, Median: 12 weeks; for Composite Geometric Mean Diameters (cGMD) of the Grafts, Mean ± SD: 12 weeks after grafting
Experimental: The effect of CTC-96™ on the infectivity of HPV-11 was evaluated in the human xenograft SCID mouse model. HPV type 11 is, with HPV-6, one of the two viruses responsible for the majority of anogenital warts in humans.
CTC-96™ in saline was incubated with HPV-11 prior to infection of human neonatal foreskin fragments. The fragments were then grafted onto SCID mice. The animals were monitored weekly. They were weighed at the time of grafting, and every other week during the 12 weeks of the experiment. There was no effect of HPV-11 treatment by CTC-96™ on the weight of the mice. The animals were sacrificed by cervical dislocation 12 weeks after graft implantation. Length, width, and height of the graft were measured and recorded. A composite geometric mean diameter (cGMD) of the grafts was calculated for each mouse. The grafts were then removed and analyzed by histology, immunocytochemistry and RT-PCR. Graft evaluation by immunocytochemistry utilized anti-common Papillomavirus antigen^4. Explanted grafts were homogenized and total RNA was extracted. HPV-11 viral cDNA was generated by nested RT-PCR.
Presence of HPV was defined by the presence of two out of three of the following features: acanthosis (an increase in the thickness of the stratum spinosum of the epidermis) koilocytosis (perinuclear vacuolation), or parakeratosis (persistence of the nuclei in the cells of the stratum corneum of the epidermis). As the CTC-96™ concentration increases the percentages of grafts containing HPV decreases, with none positive at the two higher concentrations. […] Two explanations are possible for the high number of foreign body reactions present in the grafts infected with the HPV-11 treated with the two highest concentrations of CTC-96™. The first is that CTC-96™ completely inactivated HPV-11. […] The alternate explanation is that CTC-96™ was toxic to the graft itself. This is unlikely since CTC-96™ has been used in vitro and in vivo in intravaginal preparations without associated toxicities at the concentrations used, and at the lowest concentration of CTC-96™ (0.05%), the number of grafts with a foreign body reaction was not different than that in the control group, thus toxicity would be unlikely to account for the lower number of HPV positive grafts (P=0.0 15; by Fisher exact test). Since CTC-96™ has a clear virucidal action at the lowest concentration (see Table 4), it is reasonable to assume that this virucidal action is present at higher concentrations, independent of the presence of a cytotoxic effect.
Table 4 presents the results and analysis of the HPV RT-PCR, which was performed by extracting total RNA from homogenized, explanted grafts and generating HPV-11 viral cDNA by nested RT-PCR. Using this assay, there is a strong and clear dose-response effect. Only with the highest dose of CTC-96™ is there complete obliteration of viral transcriptional activity.

[3] = HPV-11 treated with CTC-96 0.05%
[4] = HPV-11 treated with CTC-96 0.2%
[5] = concentration not printed in the table row (0.2% group)

## CC(/C=C(/C)[O-])=NCCN=C(C)/C=C(/C)[O-].Cc1ncc[nH]1.Cc1ncc[nH]1.[Br-].[Co+3] [CTC-96]
HPV-11 [1]; CTC-96 0.05%
  Histology: grafts Negative for HPV (percent): 30%
  Histology: grafts Positive for HPV (number): 16
  Histology: grafts Positive for HPV (percent): 73%
  Immunocytochemistry (HPV capsid antigen): grafts Negative (percent): 48%
  Immunocytochemistry (HPV capsid antigen): grafts Positive (number): 12
  Immunocytochemistry (HPV capsid antigen): grafts Positive (percent): 52%
  RT-PCR (HPV-11 mRNA): grafts Negative (number): 9
  RT-PCR (HPV-11 mRNA): grafts Negative (percent): 39%
  RT-PCR (HPV-11 mRNA): grafts Positive (number): 14
  RT-PCR (HPV-11 mRNA): grafts Positive (percent): 61%
HPV-11 [1]; CTC-96 0.05%, foreign body/fibrous counted as negative
  Immunocytochemistry (HPV capsid antigen): grafts Negative (number): 11
HPV-11 [1]; CTC-96 0.2%
  Histology: grafts Negative for HPV (number): 14
  Histology: grafts Negative for HPV (percent): 67%
  Histology: grafts Positive for HPV (number): 7
  Histology: grafts Positive for HPV (percent): 33%
  Immunocytochemistry (HPV capsid antigen): grafts Negative (number): 15
  Immunocytochemistry (HPV capsid antigen): grafts Negative (percent): 71%
  Immunocytochemistry (HPV capsid antigen): grafts Positive (number): 6
  Immunocytochemistry (HPV capsid antigen): grafts Positive (percent): 29%
  RT-PCR (HPV-11 mRNA): grafts Negative (number): 17
  RT-PCR (HPV-11 mRNA): grafts Negative (percent): 81%
  RT-PCR (HPV-11 mRNA): grafts Positive (number): 4
  RT-PCR (HPV-11 mRNA): grafts Positive (percent): 19%
HPV-11 [1]; CTC-96 1%
  Histology: grafts Negative for HPV (number): 22
  Histology: grafts Negative for HPV (percent): 100%
  Histology: grafts Positive for HPV (number): 0
  Histology: grafts Positive for HPV (percent): 0%
  Immunocytochemistry (HPV capsid antigen): grafts Negative (number): 22
  Immunocytochemistry (HPV capsid antigen): grafts Negative (percent): 100%
  Immunocytochemistry (HPV capsid antigen): grafts Positive (number): 0
  Immunocytochemistry (HPV capsid antigen): grafts Positive (percent): 0%
  RT-PCR (HPV-11 mRNA): grafts Negative (number): 14
  RT-PCR (HPV-11 mRNA): grafts Negative (percent): 78%
  RT-PCR (HPV-11 mRNA): grafts Positive (number): 4
  RT-PCR (HPV-11 mRNA): grafts Positive (percent): 22%
HPV-11 [1]; all CTC-96 concentrations, 12 weeks
  Graft size (composite geometric mean diameter) versus control, FIG. 2: dramatic and highly statistically significant microbicidal effect
HPV-11 [1]; grafts pre-exposed to CTC-96 0.05%, foreign body/fibrous counted as negative
  Histology: grafts Negative for HPV (number): 7
HPV-11 [2]; 12 weeks of the experiment
  Effect on the weight of the mice: no effect
HPV-11 [2]; CTC-96 0.05%
  Histology: grafts Positive for HPV (number): 4
  Histology: grafts Positive for HPV (percent): (26.7%)
  Immunocytochemistry: grafts Positive for HPV (number): 2
  Immunocytochemistry: grafts Positive for HPV (percent): (12.5%)
  RT-PCR: grafts HPV-11 Negative (number): 7
  RT-PCR: grafts HPV-11 Positive (number): 9
  RT-PCR: grafts HPV-11 Positive (percent): (56.2%)
  Histology: grafts Negative for HPV (number): 11
HPV-11 [2]; CTC-96 0.05%, anti-common Papillomavirus antigen
  Immunocytochemistry: grafts Negative for HPV (number): 14
HPV-11 [2]; CTC-96 0.2%
  Histology: grafts Positive for HPV (number): 0
  Histology: grafts Positive for HPV (percent): (0%)
  Immunocytochemistry: grafts Positive for HPV (number): 0
  Immunocytochemistry: grafts Positive for HPV (percent): (0%)
  Histology: grafts Negative for HPV (number): 12
  Immunocytochemistry: grafts Negative for HPV (number): 12
HPV-11 [2]; CTC-96 1%
  Histology: grafts Positive for HPV (number): 0
  Histology: grafts Positive for HPV (percent): (0%)
  Immunocytochemistry: grafts Positive for HPV (number): 0
  Immunocytochemistry: grafts Positive for HPV (percent): (0%)
  RT-PCR: grafts HPV-11 Negative (number): 15
  RT-PCR: grafts HPV-11 Positive (number): 0
  RT-PCR: grafts HPV-11 Positive (percent): (0%)
  Histology: grafts Negative for HPV (number): 16
  Immunocytochemistry: grafts Negative for HPV (number): 17
HPV-11 [2]; [3]
  Composite Geometric Mean Diameters (cGMD) of the Grafts, Median: 2.01 mm
  Composite Geometric Mean Diameters (cGMD) of the Grafts, Mean ± SD: 2.02 ± 0.179 mm
HPV-11 [2]; [4]
  Composite Geometric Mean Diameters (cGMD) of the Grafts, Median: 1.88 mm
  Composite Geometric Mean Diameters (cGMD) of the Grafts, Mean ± SD: 1.86 ± 0.196 mm
HPV-11 [2]; HPV-11 treated with CTC-96 1%
  Composite Geometric Mean Diameters (cGMD) of the Grafts, Median: 1.94 mm
  Composite Geometric Mean Diameters (cGMD) of the Grafts, Mean ± SD: 1.95 ± 0.139 mm
HPV-11 [2]; [5]
  RT-PCR: grafts HPV-11 Negative (number): 5
  RT-PCR: grafts HPV-11 Positive (percent): (28.6%)
HPV-11 [2]; highest concentration of CTC-96 (1%)
  Virucidal effect on HPV-11: completely virucidal
HPV-11 [2]; mouse, in vivo
  Effect on the animals' mortality or weight gain: no effect
